Drawing on ChEMBL document CHEMBL3638714, “Fused heterocyclic derivative and pharmaceutical use thereof” (2015), this text covers IC50 for three molecules.

The structures appear in SMILES notation.

The target in this assay is Xanthine dehydrogenase/oxidase (Bos taurus, UniProt P80457). Nature of the assay: Inhibition Assay: Xanthine oxidase (from bovine milk, Sigma) was prepared with phosphate-buffered saline (PBS) at 0.02 units/mL, and then the solution was added to 96 well plates at 50 μL/well. In addition, test compounds diluted with PBS were added at 50 μL/well. Xanthine (manufactured by Wako pure chemical) at 200 μM prepared with PBS was added at 100 μL/well, and the reaction was conducted for 10 minutes at room temperature. Absorbance at 290 nm was measured by using a microplate reader SpectraMax Plus 384 (manufactured by Molecular device).
Xanthine dehydrogenase/oxidase, sequence (P80457 whole entry): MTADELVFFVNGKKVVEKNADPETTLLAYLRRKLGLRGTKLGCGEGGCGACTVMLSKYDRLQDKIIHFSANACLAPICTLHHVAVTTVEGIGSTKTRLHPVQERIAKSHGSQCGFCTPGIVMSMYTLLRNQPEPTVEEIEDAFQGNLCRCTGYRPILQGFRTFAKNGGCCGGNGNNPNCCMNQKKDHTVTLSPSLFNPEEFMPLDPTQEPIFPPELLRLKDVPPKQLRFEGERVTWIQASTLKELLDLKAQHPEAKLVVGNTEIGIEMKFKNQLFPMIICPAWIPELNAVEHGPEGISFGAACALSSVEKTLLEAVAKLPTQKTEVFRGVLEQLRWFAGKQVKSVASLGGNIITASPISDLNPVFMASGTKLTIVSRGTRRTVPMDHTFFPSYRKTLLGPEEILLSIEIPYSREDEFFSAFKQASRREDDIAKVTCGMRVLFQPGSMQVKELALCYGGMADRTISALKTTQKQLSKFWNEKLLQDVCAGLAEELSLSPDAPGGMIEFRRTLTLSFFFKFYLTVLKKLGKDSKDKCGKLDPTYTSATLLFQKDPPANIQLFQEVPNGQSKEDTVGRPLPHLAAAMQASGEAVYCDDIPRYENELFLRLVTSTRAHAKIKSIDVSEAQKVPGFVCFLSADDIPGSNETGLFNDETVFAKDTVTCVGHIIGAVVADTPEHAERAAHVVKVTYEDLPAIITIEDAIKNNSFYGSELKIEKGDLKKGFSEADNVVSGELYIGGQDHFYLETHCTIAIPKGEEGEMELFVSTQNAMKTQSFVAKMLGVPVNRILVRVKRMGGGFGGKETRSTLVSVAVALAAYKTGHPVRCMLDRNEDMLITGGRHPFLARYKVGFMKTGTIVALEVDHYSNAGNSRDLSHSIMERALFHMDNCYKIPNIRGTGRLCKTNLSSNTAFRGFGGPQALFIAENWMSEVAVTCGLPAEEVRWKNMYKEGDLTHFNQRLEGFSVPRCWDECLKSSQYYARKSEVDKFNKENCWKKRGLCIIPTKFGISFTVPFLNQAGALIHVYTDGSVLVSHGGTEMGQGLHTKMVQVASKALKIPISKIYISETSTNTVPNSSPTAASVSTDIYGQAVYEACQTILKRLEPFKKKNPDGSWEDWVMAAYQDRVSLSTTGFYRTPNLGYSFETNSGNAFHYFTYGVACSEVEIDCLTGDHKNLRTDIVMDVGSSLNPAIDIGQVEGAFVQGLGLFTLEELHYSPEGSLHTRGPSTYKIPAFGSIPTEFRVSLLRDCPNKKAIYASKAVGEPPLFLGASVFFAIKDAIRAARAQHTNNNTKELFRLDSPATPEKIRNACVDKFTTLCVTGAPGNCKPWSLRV
What is called IC50 is the point on the concentration scale where inhibition reaches its midpoint. `[C-]#[N+]c1cn(-c2ccc(C(=O)O)c(O)c2)c2cscc12`: the IC50 came out at 0.01 µM.

Regarding `[C-]#[N+]c1cn(-c2ccc(C(=O)O)c(O)c2)c2sc(Br)cc12`, the IC50 was found to be 0.014 µM.

Turning to `[C-]#[N+]c1cn(-c2ccc(C(=O)O)c(O)c2)c2sccc12`, the IC50 worked out at 0.013 µM.
